Values joined by “and” are separate entries in the source; they are usually repeats but may differ in a detail not shown here. Equal entries are not always repeated. “Also recorded” adds a separate entry of the source. Where two headings read alike, the source gives them in different places. *1 amine or outer side, *2 acyl side, *3 side chain or, on linkers, in order; H or OH if unused. Where a SMILES comes first, the peptide text is derived from it. Where no end group is shown, it is not given here. [ ]: non-standard residue; d: D form. The star is where a group is joined. Farnesyl = CC(C)=CCC/C(C)=C/CC/C(C)=C/C*; CO = O=C([*:1])[*:2]
Tests used:
[1] = tested on: isoprenylated protein endoprotease; experiment: Inhibition of the solubilized / partially purified enzyme by non-halomethyl ketone inhibitors; assay type: biochemical, bovine
[2] = tested on: isoprenylated protein endoprotease; experiment: Inhibition of the isoprenylated protein endoprotease by halomethyl ketones (preincubation, 20-fold dilution, Kitz-Wilson); assay type: biochemical, bovine; details: for enzyme activity (%): diluted 20-fold, control 100; for inhibition / inactivation of the endoprotease (in words): solubilized endoprotease
Protocol: A typical procedure of inhibition is given here to illustrate the details of this procedure. A CHAPSO-solubilized protein preparation (2.5 mg/mL) or a partially […] protein preparation (0.17 mg/mL) was incubated with chloromethyl ketone inhibitors at 37° C. for 30 minutes. Aliquots were removed at timed intervals and diluted with assay buffer E for the solubilized preparation of with assay buffer D for the partially purified protein preparation in 20-fold. The final protein and substrate concentrations were 0.12 mg/mL (or 8.5 μg of partially purified protein preparation per milliliter) and 2.0 μM, respectively, except as otherwise noted; the residual enzyme activity was assayed as described above. TPCK and BFC-CMK were characterized by kinetic measurements. The bimolecular rate constant Kinh /K1 and pseudo-first-order kinetic rate constant Kinh were obtained using the Kitz-Wilson method (Kitz & Wilson, 1962). According to Kitz-Wilson method, the irreversible modification of an enzyme by an active-site directed inhibitor is given by [drawing 9] where K1 =[E]·[I]/[E·I] and -d([E]+[E·I])/dt=Kinh [E·I]. [I] and [E] are inhibitor and enzyme concentrations at a certain time, respectively. Under conditions here [I]>>[Eo ], which is the enzyme concentration at time zero, [I] is constant. Under conditions where the enzyme-inhibitor solution is extensively diluted before the assay, a simplified equation 2 can be obtained as follows: […]
To further establish the specificity of the inactivation process, several commercially available haloketones were studies as putative inactivators of the endoprotease. The structures of these analogs are shown and their activities are shown in Table V. In these studies, the solubilized protein material was preincubated with a chloromethyl ketone inhibitor at 284 μM (unless otherwise noted) for 30 minutes; then 2.5-μL aliquots of the incubated solution were taken and diluted 20-fold for assay of the residual enzyme activity. […] Save for the dipeptide derivatives (ZGGFCMK and ZAPFCMK) derived from TPCK, the other halomethyl ketones tested are virtually inert.
FIG. 16(A) Time-dependent inhibition. 16B Kitz-Wilson plot (the upper panel) for the inhibition of the isoprenylated protein endoprotease by TPCK. The inhibition studies were carried out at 37° C. using the solubilized endoprotease preparation. Aliquote of the inhibitor-enzyme solution were taken at interval times and diluted by a factor of 20, and the enzyme activity was assayed as described in Methods. (B) (the lower panel) the concentration-dependent inhibition of the endoprotease by TPCK. The inhibition studies were carried out at 37° C. The crude CHAPSO-solubilized endoprotease preparations (0.12 mg/mL) were preincubated for 60 min in 50 μL of buffer E in the presence of 284 μM TPCK or TLCK with 6% DMSO and 2% 2-propanol. After the incubation, the reaction solution was diluted by a factor of 20, and the remaining enzyme activity of the inhibitor-enzyme solution was assayed as described in Methods. Data were represented in mean from duplicate runs.

[3] = tested on: membrane-bound isoprenylated protein endoprotease; details: cited from earlier work
[4] = tested on: protease of bovine liver microsomal membranes (isoprenylated protein endoprotease); experiment: Proteolysis of N-[3H]acetyl isoprenylated peptide substrates by calf liver microsomal membranes (N-[3H]-AFC formation, HPLC); details: for activity as substrate (Table 1, words): 10 mM, prolonged incubation time (16 hours), detection limit 1.13 pmol/min/mg
[5] = molecular target: T1, cysteine protease apopain (Homo sapiens, UniProt P42574); details: cited from earlier work
T1 sequence (P42574 29-175 limits assumed): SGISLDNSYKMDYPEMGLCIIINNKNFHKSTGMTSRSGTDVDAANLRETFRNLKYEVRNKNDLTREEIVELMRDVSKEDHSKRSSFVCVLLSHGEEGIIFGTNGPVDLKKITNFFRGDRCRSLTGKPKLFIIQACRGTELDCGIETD
T1 sequence (P42574 176-277 limits assumed): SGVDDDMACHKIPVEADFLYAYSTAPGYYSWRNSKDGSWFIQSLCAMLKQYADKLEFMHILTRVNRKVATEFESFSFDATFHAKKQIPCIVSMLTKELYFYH

[6] = molecular target: T2, cysteine protease ICE (interleukin-1β converting enzyme) (Homo sapiens, UniProt P29466); details: cited from earlier work
T2 sequence (P29466 120-297 limits assumed): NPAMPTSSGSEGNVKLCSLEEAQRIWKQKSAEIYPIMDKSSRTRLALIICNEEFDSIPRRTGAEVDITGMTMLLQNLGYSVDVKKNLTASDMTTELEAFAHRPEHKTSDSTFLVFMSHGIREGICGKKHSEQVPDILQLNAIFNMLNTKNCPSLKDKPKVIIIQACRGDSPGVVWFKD
T2 sequence (P29466 317-404 limits assumed): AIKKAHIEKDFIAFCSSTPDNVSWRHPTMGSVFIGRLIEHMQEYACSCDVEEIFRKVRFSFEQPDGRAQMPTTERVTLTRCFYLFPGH

[7] = 284 μM inhibitor, solubilized protein preincubated 30 minutes
[8] = Kitz-Wilson plot using the partially purified enzyme preparation
[9] = calf liver microsomal membranes
[10] = Table 1, same enzyme preparation, average of two determinations ±S.D.

O[C@H](CS)[C@H](O)CS (racemic) [DTT, Dithiothreitol]
effect on the solubilized enzyme's activity (in words) ([1]; 1-5 mM): Neither DTT (1-5 mM) nor glycerol (20%) affects the enzyme's activity
enzyme activity (%) detergent extract ([1]; inhibitor 5 mM, control 100): 108 ± 8%

CC(C)=CCC/C(C)=C/CC/C(C)=C/CSC[C@H](NC(=O)OC(C)(C)C)C(=O)CCl (stereo in doubt) [BFCCMK, N-Boc-S-all-trans-Farnesyl-L-cysteine Chloromethyl Ketone]
enzyme activity (%) [2, 7]: 27 ± 2%
Kinh (s^-1) [2, 8]: (5.9 ± 0.4) × 10^-3 s^-1
Kinh /K1 [2, 8]: 19.4 M⁻¹ s⁻¹ and 19.4 ± 1 M⁻¹ s⁻¹
Ki ([2]; Kitz-Wilson plot using the partially purified enzyme preparation, read-out: K1): 30 µM and ~30 µM
increase of the second-order rate constant ([2]; compared with TPCK): 15 fold
inhibition / inactivation of the endoprotease (in words) [2]: good inhibitors; also recorded: quite a potent inactivator of the endoprotease; also recorded: most potent inactivator of the endoprotease; also recorded: much more potent inactivator of the endoprotease than TPCK

CC(C)=CCC/C(C)=C/CC/C(C)=C/CSC[C@@H](C=O)NC(=O)OC(C)(C)C (stereo in doubt) [N-Boc-S-all-trans-farnesyl-L-cysteine Aldehyde]
inhibition of the enzyme (in words) ([3]; Ma et al., 1993): fairly potent competitive inhibitor

CC(=O)N[C@@H](CSC/C=C(\C)CC/C=C(\C)CCC=C(C)C)C(N)=O [AFC amide]
substrate activity (in words) [4, 9]: not a substrate for the enzyme

N=C(N)c1ccc(CS(=O)(=O)F)cc1 [APMSF, 4-(amidinophe-nyl)methanesulfonyl fluoride]
inhibition of the endoprotease (in words) [3]: not inhibited

CC(C)C[C@H](NC(=O)[C@@H](NC(=O)N[C@@H](Cc1ccccc1)C(=O)O)[C@@H]1CCN=C(N)N1)C(=O)N[C@H](C=O)Cc1ccccc1 [Chymostatin]
inhibition of the endoprotease (in words) ([1]; 0.33 mM): not inhibited
enzyme activity (%) detergent extract ([1]; inhibitor 0.33 mM, control 100): 104 ± 8%
enzyme activity (%) partially purified ([1]; inhibitor 0.33 mM, control 100): 99 ± 1%
enzyme activity (%) partially purified ([1]; inhibitor 0.33 mM, control 100, listed as chymostatin): not inhibited

CCN1C(=O)C=CC1=O [N-ethylma-leimide]
inhibition of apopain (in words) [5]: inhibited

O=C(O)c1cc[c]([Hg][Cl])cc1 [PCMB, p-chloromercuribenzoate]
partially purified enzyme activity inhibited ([1]; 5 μM, partially purified enzyme): 67%
enzyme activity (%) detergent extract ([1]; 0.5 mM PCMB, then +5 mM DTT (regenerated activity)): 44 ± 4% and 44%
regeneration of the inhibited activity after extensive dialysis and dilution (in words) ([1]; detergent extract inhibited by 0.5 mM PCMB): no regeneration of the inhibited activity was observed
enzyme activity (%) partially purified ([1]; inhibitor 5 μm, control 100): 33 ± 3%
inhibition of ICE (in words) [6]: inactivated
inhibition of the endoprotease ([3]; 0.5 mM, membrane-bound enzyme): 41%

O=S(=O)(F)Cc1ccccc1 [PMSF, phenylmethanesulfonyl fluoride]
inhibition of the endoprotease (in words) ([1]; 1 mM): not inhibited
enzyme activity (%) detergent extract ([1]; inhibitor 1 mM, control 100): 93 ± 3%

CC(C)[C@H](NC(=O)[C@H](CCCNC(=N)N)NC(=O)N[C@@H](Cc1ccccc1)C(=O)O)C(=O)N[C@H](C=O)CCCNC(=N)N [antipain] ({Phe-CO}-Arg-Val-Arg-aldehyde)
inhibition of ICE (in words) [6]: insensitive

OCC(O)CO [glycerol]
effect on the solubilized enzyme's activity (in words) ([1]; 20%): Neither DTT (1-5 mM) nor glycerol (20%) affects the enzyme's activity

CC(=O)N[C@@H](CC(C)C)C(=O)N[C@@H](CC(C)C)C(=O)N[C@H](C=O)CCCNC(=N)N [leupeptin]
inhibition of the endoprotease (in words) ([3]; 1.0 μM): not inhibited

N-Ac-S-all-trans-farnesyl-D-Cys-L-Val-L-Ile [AFC--Val--Ile (6)]
activity as substrate (Table 1, words) [4]: inactive

N-Benzyloxycarbonylglycylglycyl-S-all-trans-farnesyl-L-cysteine Chloromethyl Ketone [ZGGFCCMK]
enzyme activity (%) [2, 7]: 44 ± 1%
inhibition / inactivation of the endoprotease (in words) [2]: good inhibitors

N-[^3 H-Acetyl-S-all-trans-geranylgeranyl-L-Cys-L-Val-L-ile [AGGC--Val--Ile (2)]
Km [4, 10]: 4.01 ± 0.4 µM
Vmax [4, 10]: 26.20 ± 0.97 pmol/min/mg
Km [4, 9]: 14.6 µM
Vmax [4, 9]: 19.35 pmol/min/mg
substrate activity (in words) [4, 9]: good substrates

N-[^3 H]-Acetyl-L-Cys-L-Val-L-Ile [Cys--Val--Ile (4)]
activity as substrate (Table 1, words) [4]: inactive
substrate activity (in words) [4, 9]: Neither analog was measurably processed

N-[^3 H]-Acetyl-S-all-trans-geranylgeranyl-D-cys-L-Val-L-Ile [AGGC--Val--Ile (2) D--L--L]
activity as substrate (Table 1, words) [4]: inactive
substrate activity (in words) [4, 9]: no measurable protease activity

N-[^3 H]-Acetyl-S-thio-t-butyl-L-Cys-L-Val-L-Ile [t-butylthio-Cys--Val--Ile (5)]
activity as substrate (Table 1, words) [4]: inactive
substrate activity (in words) [4, 9]: Neither analog was measurably processed

N-[^3 H]-acetyl-S-all-trans-farnesyl-L-Cys-L-Val-D-Ile [AFC--Val--Ile (8)]
activity as substrate (Table 1, words) [4]: inactive
substrate activity (in words) [4, 9]: did not have substrate activity

N-[^3 H]-acetyl-S-all-trans-farnesyl-L-Cys-L-Val-L-Ile-D-Met ({(3H)‑acetyl}-C(Farnesyl)VI[dM]) [AFC--Val--Ile--Met (10)]
activity as substrate (Table 1, words) [4]: weakly active (detectable activity is observed under prolonged incubation periods, but the activity is <5% that observed with AFC-V-I-S)
substrate activity (in words) [4, 9]: processed to some extent

N-acetyl-S-all-trans-farnesyl-D-Cys-D-Val-L-Ile [D-D-L]
substrate activity (in words) [4, 9]: inactive

N-acetyl-S-all-trans-farnesyl-L-Cys-D-Val-L-Ile [AFC--Val--Ile (7)]
activity as substrate (Table 1, words) [4]: inactive
substrate activity (in words) [4, 9]: did not have substrate activity

N-acetyl-S-trans-geranyl-D-Cys-L-Val-Ile [AGC--Val--Ile (3) D--L--L]
activity as substrate (Table 1, words) [4]: inactive
substrate activity (in words) [4, 9]: no measurable protease activity

N-acetyl-S-trans-geranyl-L-Cys-L-Val-L-Ile [AGC--Val--Ile (3)]
Km [4, 10]: 14.6 ± 2.14 µM
Vmax [4, 10]: 19.35 ± 1.12 pmol/min/mg
substrate activity (in words) [4, 9]: good substrates

Nα-tosyl-L-lysine chloromethyl ketone [TLCK]
inhibition of apopain (in words) [5]: not
enzyme activity (%) ([2]; 1000 μM inhibitor, solubilized protein preincubated): 94 ± 15%
inhibition / inactivation of the endoprotease (in words) [2]: did not inhibit the enzyme activity; also recorded: does not inhibit the enzyme activity

aprotinin
inhibition of the endoprotease (in words) ([3]; 0.6 μM): not inhibited

bis(p-nitro-phenyl)phosphate [BNPP]
inhibition of the endoprotease (in words) ([1]; 1 mM): not inhibited
enzyme activity (%) detergent extract ([1]; inhibitor 1 mM, control 100): 100 ± 8%

β-(2-naphthyl)-L-alanine chloromethyl ketone [2-Nal-Ala-CMK]
enzyme activity (%) [2, 7]: 53 ± 1%
inhibition / inactivation of the endoprotease (in words) [2]: inhibit the endoprotease well

Source: patent publication US6015877A, “Compounds for inhibition of proteolysis” (President and Fellows of Harvard College, priority 1996, dated 2000)
